Results: patent US20250302832A1, “PYRAZINE DERIVATIVES AND USES THEREOF” (FOGHORN THERAPEUTICS INC., priority 2022, published 2025)

Tests used:
HiBit-BRM fusion protein = target: T1, HiBit-BRM fusion protein (Homo sapiens, UniProt P51531); assay: HiBiT-BRM cell-based degradation assay (Nano-Glo HiBiT lytic detection, 24 h); details: HeLa cell line expressing HiBiT-BRM; for DC50: read-out: BRM HiBit Degradation IC50
T1 construct: expressed in transfected cells
Method: (§1) Procedure: A stable HeLa cell line expressing HiBiT-BRM was generated. On day 0, 5000 cells were seeded in 40 μL of media into each well of 384-well cell culture plates. On day 1, cells were treated with 120 nL DMSO or 120 nL of 3-fold serially DMSO-diluted compounds (10 points in duplicate with 30 μM as final top dose). Subsequently plates were incubated for 24 h in a standard tissue culture incubator and equilibrated at room temperature for 15 minutes. Nano-GB HiBiT Lytic Detection System (Promega N3050) reagent was freshly prepared and 20 ul was added to each well. Upon addition of this LgBit-containing reagent, the HiBiT and LgBiT proteins associate to form the luminescent NanoBiT luciferase. The plates were shaken for 10 minutes at room temperature and the bioluminescence read using an EnVision plate reader (PerkinElmer).
(§2) The degradation % was calculated using the following formula: % degradation=100%−100%×(Lumsample−LuMLC)/(LuMHC−LuMLC). DMSO treated cells are employed as High Control (HC) and 2 μM of a known BRM/BRG1 degrader standard treated cells are employed as Low Control (LC).

[1] = target: T2, HiBit-BRG1 fusion protein (Homo sapiens, UniProt P51532); assay: HiBiT-BRG1 cell-based degradation assay (Nano-Glo HiBiT lytic detection, 24 h); details: HeLa cell line expressing HiBit-BRG1 and LgBit; for Dmax: read-out: BRG1 HiBit Degradation Maximum (%); for DC50: read-out: BRMG1 HiBit Degradation IC50
T2 construct: expressed in transfected cells
Method: as §1, with “On day 1, cells were treated with 120 nL DMSO or 120 nL of 3-fold serially DMSO-diluted compounds (10 points in duplicate with 30 μM as final top dose).” left out
For measurement of BRG1 degradation, a stable HeLa cell line expressing HiBit-BRG1 and LgBit was generated. The same protocol as above was then followed.
as §2

T1 sequence (P51531 whole entry, the tested form may be a part): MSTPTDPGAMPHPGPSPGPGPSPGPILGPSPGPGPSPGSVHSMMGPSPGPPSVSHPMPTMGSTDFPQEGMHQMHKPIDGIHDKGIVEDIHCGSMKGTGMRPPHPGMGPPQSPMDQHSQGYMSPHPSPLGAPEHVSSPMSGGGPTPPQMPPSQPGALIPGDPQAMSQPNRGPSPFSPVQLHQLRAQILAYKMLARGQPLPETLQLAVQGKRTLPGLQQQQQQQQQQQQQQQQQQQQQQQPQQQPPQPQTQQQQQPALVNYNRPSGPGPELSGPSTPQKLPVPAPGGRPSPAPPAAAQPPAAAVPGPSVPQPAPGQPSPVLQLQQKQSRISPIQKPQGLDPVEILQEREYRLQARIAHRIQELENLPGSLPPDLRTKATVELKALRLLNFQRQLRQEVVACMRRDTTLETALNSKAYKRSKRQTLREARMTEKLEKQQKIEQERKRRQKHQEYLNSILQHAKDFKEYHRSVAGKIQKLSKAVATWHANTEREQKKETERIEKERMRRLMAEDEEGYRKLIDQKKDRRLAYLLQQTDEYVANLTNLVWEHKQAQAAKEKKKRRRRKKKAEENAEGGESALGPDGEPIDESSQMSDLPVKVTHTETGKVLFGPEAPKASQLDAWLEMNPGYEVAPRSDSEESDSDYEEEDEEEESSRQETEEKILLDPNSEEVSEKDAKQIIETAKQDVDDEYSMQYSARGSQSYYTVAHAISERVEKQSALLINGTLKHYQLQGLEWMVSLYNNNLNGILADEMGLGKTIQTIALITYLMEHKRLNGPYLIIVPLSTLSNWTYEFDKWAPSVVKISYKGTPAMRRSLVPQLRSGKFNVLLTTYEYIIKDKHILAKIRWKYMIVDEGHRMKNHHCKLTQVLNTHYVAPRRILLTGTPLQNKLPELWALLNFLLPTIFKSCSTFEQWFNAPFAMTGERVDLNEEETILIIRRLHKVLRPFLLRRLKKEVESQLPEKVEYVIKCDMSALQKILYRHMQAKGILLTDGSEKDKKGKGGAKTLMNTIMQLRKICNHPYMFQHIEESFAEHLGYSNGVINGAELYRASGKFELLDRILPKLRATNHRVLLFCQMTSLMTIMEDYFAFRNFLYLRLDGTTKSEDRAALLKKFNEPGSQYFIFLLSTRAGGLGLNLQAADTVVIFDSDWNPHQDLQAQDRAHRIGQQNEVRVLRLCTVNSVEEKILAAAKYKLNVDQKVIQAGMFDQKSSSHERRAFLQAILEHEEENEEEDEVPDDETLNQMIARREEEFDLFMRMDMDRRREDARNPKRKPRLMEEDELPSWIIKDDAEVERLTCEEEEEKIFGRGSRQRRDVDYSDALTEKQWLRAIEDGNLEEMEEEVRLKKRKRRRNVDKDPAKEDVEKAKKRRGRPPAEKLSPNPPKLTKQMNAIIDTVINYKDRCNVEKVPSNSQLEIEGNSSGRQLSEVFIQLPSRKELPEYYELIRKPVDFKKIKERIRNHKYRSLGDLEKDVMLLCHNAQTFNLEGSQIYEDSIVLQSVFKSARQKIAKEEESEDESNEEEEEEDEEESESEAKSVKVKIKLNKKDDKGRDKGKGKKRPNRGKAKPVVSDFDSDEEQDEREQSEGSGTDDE
T2 sequence (P51532 whole entry, the tested form may be a part): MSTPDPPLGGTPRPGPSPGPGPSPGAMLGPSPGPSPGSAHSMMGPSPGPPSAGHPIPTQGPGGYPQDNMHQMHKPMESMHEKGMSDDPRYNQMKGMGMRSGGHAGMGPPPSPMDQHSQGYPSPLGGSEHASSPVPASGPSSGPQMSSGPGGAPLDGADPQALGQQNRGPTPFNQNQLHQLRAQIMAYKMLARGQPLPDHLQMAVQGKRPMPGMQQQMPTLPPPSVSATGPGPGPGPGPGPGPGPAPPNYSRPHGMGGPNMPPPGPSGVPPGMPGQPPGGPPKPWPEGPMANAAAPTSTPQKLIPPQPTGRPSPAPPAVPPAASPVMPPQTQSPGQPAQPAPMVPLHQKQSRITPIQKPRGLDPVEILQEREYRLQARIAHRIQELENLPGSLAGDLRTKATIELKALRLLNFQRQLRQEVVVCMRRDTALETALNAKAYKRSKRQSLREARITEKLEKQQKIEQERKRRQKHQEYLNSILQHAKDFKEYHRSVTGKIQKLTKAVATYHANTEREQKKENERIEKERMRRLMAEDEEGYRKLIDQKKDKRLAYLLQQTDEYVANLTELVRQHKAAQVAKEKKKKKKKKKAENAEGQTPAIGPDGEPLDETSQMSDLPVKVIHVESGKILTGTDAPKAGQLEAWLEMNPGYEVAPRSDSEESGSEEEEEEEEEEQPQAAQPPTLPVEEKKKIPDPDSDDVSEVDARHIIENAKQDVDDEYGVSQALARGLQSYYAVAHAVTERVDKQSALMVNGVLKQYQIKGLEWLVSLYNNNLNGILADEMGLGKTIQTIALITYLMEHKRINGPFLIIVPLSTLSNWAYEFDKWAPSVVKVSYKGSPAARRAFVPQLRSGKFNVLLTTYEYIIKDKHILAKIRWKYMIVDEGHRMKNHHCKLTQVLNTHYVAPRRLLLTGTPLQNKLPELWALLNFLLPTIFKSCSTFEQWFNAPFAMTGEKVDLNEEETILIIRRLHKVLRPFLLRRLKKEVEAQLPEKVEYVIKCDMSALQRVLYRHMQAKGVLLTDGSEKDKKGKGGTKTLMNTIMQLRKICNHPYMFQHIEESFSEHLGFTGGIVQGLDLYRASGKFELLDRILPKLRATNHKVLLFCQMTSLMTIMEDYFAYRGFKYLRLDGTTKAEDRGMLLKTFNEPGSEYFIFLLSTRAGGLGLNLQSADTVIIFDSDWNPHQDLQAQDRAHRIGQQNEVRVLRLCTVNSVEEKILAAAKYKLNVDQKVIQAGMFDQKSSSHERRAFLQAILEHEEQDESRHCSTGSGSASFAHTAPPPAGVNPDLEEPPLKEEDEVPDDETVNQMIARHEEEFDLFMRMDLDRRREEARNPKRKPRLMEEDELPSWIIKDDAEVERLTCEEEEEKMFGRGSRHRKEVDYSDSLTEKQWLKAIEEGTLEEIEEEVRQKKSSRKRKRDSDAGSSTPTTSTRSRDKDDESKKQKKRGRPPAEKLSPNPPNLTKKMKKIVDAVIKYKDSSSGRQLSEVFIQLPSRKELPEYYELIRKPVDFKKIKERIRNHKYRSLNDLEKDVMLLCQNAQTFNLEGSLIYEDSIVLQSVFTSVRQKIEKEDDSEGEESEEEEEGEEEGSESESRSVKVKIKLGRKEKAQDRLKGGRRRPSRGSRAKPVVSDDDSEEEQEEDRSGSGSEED

Q: What does the source list for `Cc1ncsc1-c1ccc([C@H](C)NC(=O)[C@@H]2C[C@@H](O)CN2C(=O)[C@@H](c2cc(N3CC4(CC(c5cc6nnc(-c7ccccc7O)cc6n5C5(CF)CC5)C4)C3)no2)C(C)C)cc1` [Compound 68, (2S,4R)-1-((R)-2-(3-(6-(5-(1-(fluoromethyl)cyclopropyl)-3-(2-hydroxyphenyl)-5H-pyrrolo[3,2-c]pyridazin-6-yl)-2-azaspiro[3.3]heptan-2-yl)isoxazol-5-yl)-3-methylbutanoyl)-4-hydroxy-N-((S)-1-(4-(4-methylthiazol-5-yl)phenyl)ethyl)pyrrolidine-2-carboxamide]?
A: BRM HiBit Degradation Maximum (%) (HiBit-BRM fusion protein): A (“A” indicates maximum degradation ≥75%); DC50 (HiBit-BRM fusion protein): < 10 nM; Dmax [1]: < 50%

Q: `Cc1ncsc1-c1ccc([C@H](C)NC(=O)[C@@H]2C[C@@H](O)CN2C(=O)[C@@H](c2cc(OCCN3CCC(c4cc5nnc(-c6ccccc6O)cc5[nH]4)CC3)no2)C(C)C)cc1` [Compound 17, (2S,4R)-4-hydroxy-1-[(2R)-2-[3-(2-{4-[3-(2-hydroxyphenyl)-5H-pyrrolo[3,2-c]pyridazin-6-yl]piperidin-1-yl}ethoxy)-1,2-oxazol-5-yl]-3-methylbutanoyl]-N-[(1S)-1-[4-(4-methyl-1,3-thiazol-5-yl)phenyl]ethyl]pyrrolidine-2-carboxamide] was tested. Which “BRM HiBit Degradation Maximum (%)” value (HiBit-BRM fusion protein) did it give?
A: A (“A” indicates maximum degradation ≥75%)

Q: What about the DC50 (HiBit-BRM fusion protein) of the same compound?
A: < 10 nM

Q: What about the Dmax [1] of the same compound?
A: > 75%

Q: And the DC50 [1]?
A: > 10 nM

Q: With `CC(C)[C@@H](C(=O)N1C[C@H](O)C[C@H]1C(=O)N[C@@H](C)c1ccccc1)c1cc(-c2cnc(N3CC[C@H](c4cc5nnc(-c6ccccc6O)cc5n4C4CC4)C3)nc2)no1` [Compound 93, (2S,4R)-1-((R)-2-(3-(2-((S)-3-(5-cyclopropyl-3-(2-hydroxyphenyl)-5H-pyrrolo[3,2-c]pyridazin-6-yl)pyrrolidin-1-yl)pyrimidin-5-yl)isoxazol-5-yl)-3-methylbutanoyl)-4-hydroxy-N-((S)-1-phenylethyl)pyrrolidine-2-carboxamide] as the compound, how does the “BRM HiBit Degradation Maximum (%)” value (HiBit-BRM fusion protein) read?
A: A (“A” indicates maximum degradation ≥75%)

Q: And the DC50 (HiBit-BRM fusion protein)?
A: < 10 nM

Q: And the Dmax [1]?
A: < 50%

Q: How did the “BRM HiBit Degradation Maximum (%)” value (HiBit-BRM fusion protein) turn out when `Cc1ncsc1-c1ccc(CNC(=O)[C@@H]2C[C@@H](O)CN2C(=O)[C@@H](c2cc(-c3cnc(N4CC[C@@H](c5cc6nnc(-c7ccccc7O)cc6n5C5CC5)C4)nc3)no2)C(C)C)cc1` [Compound 89, (2S,4R)-1-((R)-2-(3-(2-((R)-3-(5-cyclopropyl-3-(2-hydroxyphenyl)-5H-pyrrolo[3,2-c]pyridazin-6-yl)pyrrolidin-1-yl)pyrimidin-5-yl)isoxazol-5-yl)-3-methylbutanoyl)-4-hydroxy-N-(4-(4-methylthiazol-5-yl)benzyl)pyrrolidine-2-carboxamide] was run?
A: A (“A” indicates maximum degradation ≥75%)

Q: And the DC50 (HiBit-BRM fusion protein)?
A: > 10 nM

Q: And the Dmax [1]?
A: > 50%

Q: And the DC50 [1]?
A: > 10 nM

Q: For `Cc1ncsc1-c1ccc([C@H](C)NC(=O)[C@@H]2C[C@@H](O)CN2C(=O)[C@@H](c2cc(-c3cnc(N4CCC(c5cc6nnc(-c7ccccc7O)cc6n5C(C)C)CC4)nc3)no2)C(C)C)cc1` [Compound 45], which “BRM HiBit Degradation Maximum (%)” value (HiBit-BRM fusion protein) is on record?
A: A (“A” indicates maximum degradation ≥75%)

Q: And the DC50 (HiBit-BRM fusion protein)?
A: < 10 nM

Q: What about the Dmax [1] of the same compound?
A: > 75%

Q: What about the DC50 [1] of the same compound?
A: < 10 nM

Q: Which “BRM HiBit Degradation Maximum (%)” value (HiBit-BRM fusion protein) does the source give for `Cc1cc(-c2cc([C@H](C(=O)N3C[C@H](O)C[C@H]3C(=O)N[C@@H](C)c3ccc(-c4scnc4C)cc3)C(C)C)on2)cnc1N1CC[C@@H](c2cc3nnc(-c4ccccc4O)cc3n2C2CC2)C1` [Compound 107, (2S,4R)-1-((R)-2-(3-(6-((R)-3-(5-cyclopropyl-3-(2-hydroxyphenyl)-5H-pyrrolo[3,2-c]pyridazin-6-yl)pyrrolidin-1-yl)-5-methylpyridin-3-yl)isoxazol-5-yl)-3-methylbutanoyl)-4-hydroxy-N-((S)-1-(4-(4-methylthiazol-5-yl)phenyl)ethyl)pyrrolidine-2-carboxamide] here?
A: A (“A” indicates maximum degradation ≥75%)

Q: And the DC50 (HiBit-BRM fusion protein)?
A: > 10 nM

Q: What about the Dmax [1] of the same compound?
A: < 50%

Q: What does the source list for `Cc1ncsc1-c1ccc([C@H](C)NC(=O)[C@@H]2C[C@@H](O)CN2C(=O)[C@@H](c2cc(-c3cnc(N4CC[C@@H](c5cc6nnc(-c7cc(F)cc(F)c7O)cc6n5C5CC5)C4)nc3)no2)C(C)C)cc1` [Compound 111, (2S,4R)-1-((R)-2-(3-(2-((R)-3-(5-cyclopropyl-3-(3,5-difluoro-2-hydroxyphenyl)-5H-pyrrolo[3,2-c]pyridazin-6-yl)pyrrolidin-1-yl)pyrimidin-5-yl)isoxazol-5-yl)-3-methylbutanoyl)-4-hydroxy-N-((S)-1-(4-(4-methylthiazol-5-yl)phenyl)ethyl)pyrrolidine-2-carboxamide]?
A: BRM HiBit Degradation Maximum (%) (HiBit-BRM fusion protein): A (“A” indicates maximum degradation ≥75%); DC50 (HiBit-BRM fusion protein): < 10 nM; Dmax [1]: < 50%

Q: Which “BRM HiBit Degradation Maximum (%)” value (HiBit-BRM fusion protein) does the source give for `Cc1ncsc1-c1ccc([C@H](C)NC(=O)[C@@H]2C[C@@H](O)CN2C(=O)[C@@H](c2cc(N3CCC(C(=O)N4CC(c5cc6nnc(-c7ccccc7O)cc6n5C)C4)CC3)no2)C(C)C)cc1` [Compound 13, (2S,4R)-4-hydroxy-1-[(2R)-2-[3-(4-{3-[3-(2-hydroxyphenyl)-5-methylpyrrolo[3,2-c]pyridazin-6-yl]azetidine-1-carbonyl}piperidin-1-yl)-1,2-oxazol-5-yl]-3-methylbutanoyl]-N-[(1S)-1-[4-(4-methyl-1,3-thiazol-5-yl)phenyl]ethyl]pyrrolidine-2-carboxamide] here?
A: A (“A” indicates maximum degradation ≥75%)

Q: What about the DC50 (HiBit-BRM fusion protein) of the same compound?
A: < 10 nM

Q: What about the Dmax [1] of the same compound?
A: > 50%

Q: And the DC50 [1]?
A: > 100 nM

Q: How did the “BRM HiBit Degradation Maximum (%)” value (HiBit-BRM fusion protein) turn out when `Cc1ncsc1-c1ccc([C@H](C)NC(=O)[C@@H]2C[C@@H](O)CN2C(=O)[C@@H](c2cc(-c3cnc(N4CC[C@H](c5cc6nnc(-c7ccccc7O)cc6n5C56CC(C5)C6)C4)nc3)no2)C(C)C)cc1` [Compound 95, (2S,4R)-1-((R)-2-(3-(2-((S)-3-(5-(bicyclo[1.1.1]pentan-1-yl)-3-(2-hydroxyphenyl)-5H-pyrrolo[3,2-c]pyridazin-6-yl)pyrrolidin-1-yl)pyrimidin-5-yl)isoxazol-5-yl)-3-methylbutanoyl)-4-hydroxy-N-((S)-1-(4-(4-methylthiazol-5-yl)phenyl)ethyl)pyrrolidine-2-carboxamide] was run?
A: A (“A” indicates maximum degradation ≥75%)

Q: And the DC50 (HiBit-BRM fusion protein)?
A: < 10 nM

Q: And the Dmax [1]?
A: > 50%

Q: What about the DC50 [1] of the same compound?
A: > 10 nM

Q: `Cc1ncsc1-c1ccc([C@H](C)NC(=O)[C@@H]2C[C@@H](O)CN2C(=O)[C@@H](c2cc(N3CCC[C@@H](c4cc5nnc(-c6ccccc6O)cc5n4C4CC4)C3)no2)C(C)C)cc1` [Compound 100, (2S,4R)-1-((R)-2-(3-((R)-3-(5-cyclopropyl-3-(2-hydroxyphenyl)-5H-pyrrolo[3,2-c]pyridazin-6-yl)piperidin-1-yl)isoxazol-5-yl)-3-methylbutanoyl)-4-hydroxy-N-((S)-1-(4-(4-methylthiazol-5-yl)phenyl)ethyl)pyrrolidine-2-carboxamide] was tested. Which “BRM HiBit Degradation Maximum (%)” value (HiBit-BRM fusion protein) did it give?
A: A (“A” indicates maximum degradation ≥75%)

Q: And the DC50 (HiBit-BRM fusion protein)?
A: > 10 nM

Q: What about the Dmax [1] of the same compound?
A: < 50%

Q: For `Cc1ncsc1-c1ccc([C@H](C)NC(=O)[C@@H]2C[C@@H](O)CN2C(=O)[C@@H](c2cc(N3CC[C@H](c4cc5nnc(-c6ccccc6O)cc5n4C4CCC4)C3)no2)C(C)C)cc1` [Compound 79, (2S,4R)-1-((R)-2-(3-((S)-3-(5-cyclobutyl-3-(2-hydroxyphenyl)-5H-pyrrolo[3,2-c]pyridazin-6-yl)pyrrolidin-1-yl)isoxazol-5-yl)-3-methylbutanoyl)-4-hydroxy-N-((S)-1-(4-(4-methylthiazol-5-yl)phenyl)ethyl)pyrrolidine-2-carboxamide], which “BRM HiBit Degradation Maximum (%)” value (HiBit-BRM fusion protein) is on record?
A: A (“A” indicates maximum degradation ≥75%)

Q: What about the DC50 (HiBit-BRM fusion protein) of the same compound?
A: > 10 nM

Q: And the Dmax [1]?
A: < 50%

Q: Which results are given for `Cc1ncsc1-c1ccc([C@H](C)NC(=O)[C@@H]2C[C@@H](O)CN2C(=O)[C@@H](c2cc(-c3ccnc(N4CC[C@@H](c5cc6nnc(-c7ccccc7O)cc6n5C5CC5)C4)n3)no2)C(C)C)cc1` [Compound 116, (2S,4R)-1-[(2R)-2-(3-{2-[(3R)-3-[5-cyclopropyl-3-(2-hydroxyphenyl)pyrrolo[3,2-c]pyridazin-6-yl]pyrrolidin-1-yl]pyrimidin-4-yl}-1,2-oxazol-5-yl)-3-methylbutanoyl]-4-hydroxy-N-[(1S)-1-[4-(4-methyl-1,3-thiazol-5-yl)phenyl]ethyl]pyrrolidine-2-carboxamide]?
A: BRM HiBit Degradation Maximum (%) (HiBit-BRM fusion protein): A (“A” indicates maximum degradation ≥75%); DC50 (HiBit-BRM fusion protein): > 10 nM; Dmax [1]: < 50%
